{"source": "ChEMBL document CHEMBL1151391", "about": "“New Dihydrochalcones and Flavanones From Uvaria Angolensis” (1982)", "assay_type_in_all_cases": "functional", "key": {"[1]": {"test_system": "Bacillus subtilis", "experiment": "Antimicrobial activity against Bacillus subtilis"}, "[2]": {"test_system": "Mycolicibacterium smegmatis", "experiment": "Antimicrobial activity against Mycobacterium smegmatis"}, "[3]": {"test_system": "Staphylococcus aureus", "experiment": "Antimicrobial activity against Staphylococcus aureus"}}, "data": [{"smiles": "COc1c(C)c(O)c(C)c(O)c1C(=O)CCc1ccccc1", "note": "[ANGOLETIN]", "values": [{"measurement": "Activity", "setting": "[1]", "result": 0.8, "unit": "µg/mL"}, {"measurement": "Activity", "setting": "[2]", "result": 6.3, "unit": "µg/mL"}, {"measurement": "Activity", "setting": "[3]", "result": 12.5, "unit": "µg/mL"}]}, {"smiles": "COc1c(C)c(O)c(Cc2ccccc2O)c(O)c1C(=O)CCc1ccccc1", "note": "[ANGUVETIN]", "values": [{"measurement": "Activity", "setting": "[1]", "result": 0.2, "unit": "µg/mL"}, {"measurement": "Activity", "setting": "[2]", "result": 1.5, "unit": "µg/mL"}, {"measurement": "Activity", "setting": "[3]", "result": 1.5, "unit": "µg/mL"}]}]}
